Measurements published in US10544112B2, “Identification of ebsulfur analogues with broad-spectrum antifungal activity” (priority 2017, dated 2020).
Converted amounts (≈) assume the structure as drawn. Where two headings read alike, the source gives them in different places.

How the values were obtained:
[1] = test system: C. albicans ATCC 64124 (strain B); test: microbe, parasite or virus in culture; format: cell-based, Candida albicans; conditions: strain B; compounds 1-4n and AmB; 48 h, RPMI 1640
Procedure: (§1) Fungal MIC determination experiments were performed using untreated 96-well plates (Corning). Cells were counted either by using a hemocytometer (Hausser Scientific, Horsham, Pa., USA) or by measuring optical density at attenuance of 600 nm (OD600) by using a Genesys 20 spectrophotometer (Thermo Scientific, Waltham, Mass., USA). Spectrophotometric and colorimetric measurements in 96-well plates were performed using a SpectraMax M5 spectrometer (Molecular Devices, Sunnyvale, Calif., USA).
(§2) Yeast strains Candida albicans ATCC 10231 (strain A), C. albicans ATCC 64124 (strain B), and C. albicans ATCC MYA-2876(S) (strain C) were kindly provided by Dr. Jon Y. Takemoto (Utah State University, Logan, UT, USA). C. albicans ATCC MYA-90819(R) (strain D), C. albicans ATCC MYA-2310(S) (strain E), C. albicans ATCC 1237(R) (strain F), C. albicans ATCC MYA-1003(R) (strain G), Candida glabrata ATCC 2001 (strain H), Candida krusei ATCC 6258 (strain I), and Candida parapsilosis ATCC 22019 (strain J) were obtained from the American Type Culture Collection (ATCC, Manassas, Va., USA). The (S) and (R) indicate that ATCC reports these strains to be susceptible (S) and resistant (R) to ITC and FLC. The filamentous fungal strains Aspergillus flavus ATCC MYA-3631 (strain K), and Aspergillus terreus ATCC MYA-3633 (strain M) were also obtained from the American Type Culture Collection (ATCC, Manassas, Va., USA). Aspergillus nidulans ATCC 38163 (strain L) was kindly provided by Dr. Jon S. Thorson (University of Kentucky, Lexington, Ky., USA), respectively. Yeast strains were cultured at 35° C. Filamentous fungal strains were cultured at 25° C. and the spores were harvested. All fungal strains were cultured in RPMI 1640 medium (catalog # R6504, Sigma-Aldrich Chemical Co., St. Louis, Mo.) buffered to pH 7.0 with 0.165 M morpholinepropanesulfonic acid (MOPS) buffer (Sigma-Aldrich Chemical Co.).
(§3) The MIC values against fungal strains were determined based on a previously published protocol. MIC values for ebsulfur (2a) analogues against fungal cells were evaluated in 96-well plates as described in the CLSI document M27-A3 with minor modifications. […] Therefore, potato dextrose broth (PDB) was used to grow the yeast inocula of all strains tested, which were later diluted in RPMI 1640 medium to perform determination of MIC values. […] The tested compounds (10 mg/mL) were diluted to the working stocks (500 μg/mL) by addition of DMSO. Two-fold serial dilution of the working stocks was prepared by addition of RPMI 1640 medium (100 μL) and cell suspension (100 μL) to 96-well microtiter plate to achieve final drug and inoculum concentrations ranging from 12.5-0.02 μg/mL and 5×10^3 CFU/mL, respectively. Plates were incubated for 48 h at 35° C. […]

[2] = test system: C. albicans ATCC 90819(R) (strain D); test: microbe, parasite or virus in culture; format: cell-based, Candida albicans; conditions: strain D; compounds 1-4n and AmB; 48 h, RPMI 1640
Procedure: as §1, §2, §3

[3] = test system: C. albicans ATCC MYA-1003(R) (strain G); test: microbe, parasite or virus in culture; format: cell-based, Candida albicans; conditions: strain G; compounds 1-4n and AmB; 48 h, RPMI 1640
Procedure: as §1, §2, §3

[4] = test system: C. albicans ATCC MYA-1237(R) (strain F); test: microbe, parasite or virus in culture; format: cell-based, Candida albicans; conditions: strain F; compounds 1-4n and AmB; 48 h, RPMI 1640
Procedure: as §1, §2, §3

[5] = test system: Candida albicans ATCC 10231 (strain A); test: Antifungal MIC determination (CLSI M27-A3, 96-well); format: cell-based; conditions: strain A; compounds 1-4n and AmB; 48 h, RPMI 1640
Procedure: as §1, §2, §3

[6] = test system: Candida glabrata ATCC 2001 (strain H); test: as above; format: cell-based; conditions: strain H; compounds 1-4n and AmB; 48 h, RPMI 1640
Procedure: as §1, §2, §3

[7] = test system: Candida krusei ATCC 6258 (strain I); test: as above; format: cell-based; conditions: strain I; compounds 1-4n and AmB; 48 h, RPMI 1640
Procedure: as §1, §2, §3

[8] = test system: Candida parapsilosis ATCC 22019 (strain J); test: as above; format: cell-based; conditions: strain J; compounds 1-4n and AmB; 48 h, RPMI 1640
Procedure: as §1, §2, §3

[9] = test system: Aspergillus flavus ATCC MYA-3631 (strain K); test: Antifungal MIC determination, filamentous fungi spores; format: cell-based; conditions: all compounds
Procedure: as §1, §2
(§4) The MIC values against fungal strains were determined based on a previously published protocol. MIC values for ebsulfur (2a) analogues against fungal cells were evaluated in 96-well plates as described in the CLSI document M27-A3 with minor modifications. […] Therefore, potato dextrose broth (PDB) was used to grow the yeast inocula of all strains tested, which were later diluted in RPMI 1640 medium to perform determination of MIC values. […] The tested compounds (10 mg/mL) were diluted to the working stocks (500 μg/mL) by addition of DMSO. Two-fold serial dilution of the working stocks was prepared by addition of RPMI 1640 medium (100 μL) and cell suspension (100 μL) to 96-well microtiter plate to achieve final drug and inoculum concentrations ranging from 12.5-0.02 μg/mL and 5×10^3 CFU/mL, respectively. Plates were incubated for 48 h at 35° C.
(§5) MIC assays for the spore-forming filamentous fungi, such as strain A. flavus ATCC MYA-3631 (strain K), were performed in a similar fashion. The filamentous fungal strains were first cultured at 25° C. on potato dextrose agar (PDA) plates for 3-5 days or until confluent. Spores were collected by washing the surface of the agar plates with dd H2O (5 mL) and then isolated the spores by gravity filtration (the spores are H2O soluble). […] Researchers working with spores should wear a facemask to prevent spore inhalation.

[10] = test system: Aspergillus terreus ATCC MYA-3633 (strain M); test: as above; format: cell-based; conditions: strain M; all compounds; spores
Procedure: as §1, §2, §4, §5

[11] = test system: Candida and Aspergillus strains; test: Antifungal MIC, summary over whole panel of fungal strains; format: cell-based; conditions: Candida and Aspergillus strains; controls, tested herein or previously published
Procedure: as §1, §2, §3

[12] = test system: C. albicans ATCC 64124 (strain B); format: cell-based, Candida albicans
Procedure: The efficiency of the compounds to kill C. albicans ATCC 64124 (strain B) was monitored using a previously published protocol. The cell suspensions were prepared to achieve an inoculum of approximately 1-4×10^5 CFU/mL in RPMI 1640 medium at 35° C. […] After fungal cell addition, at 0, 3, 6, 9, 12, and 24 h, the tubes were vortexed and 100 μL aliquots were removed from each solution, spread onto PDA plates, and incubated at 35° C. Colony counts were determined after 24 h of incubation. The experiments were performed in duplicate (FIG. 2).
Time-kill assays with ebsulfur (2a) and analogue 3a (FIG. 2) were performed to determine the rate of fungicidal activity of the compounds if the invention.

[13] = test system: C. albicans ATCC MYA-2310(S) (strain E); test: Antifungal MIC determination (CLSI M27-A3, 96-well); format: cell-based, Candida albicans; conditions: strain E; compounds 1-4n and AmB; 48 h, RPMI 1640
Procedure: as §1, §2, §3

[14] = test system: C. albicans ATCC MYA-2876(S) (strain C); test: as above; format: cell-based, Candida albicans; conditions: strain C; compounds 1-4n and AmB; 48 h, RPMI 1640
Procedure: as §1, §2, §3

[15] = test system: Aspergillus nidulans ATCC 38163 (strain L); test: Antifungal MIC determination, filamentous fungi spores; format: cell-based; conditions: strain L; spores
Procedure: as §1, §2, §4, §5

[16] = test system: C. albicans ATCC 10231 (strain A); test: ROS production assay (DCFH-DA); format: cell-based, Candida albicans; conditions: 1× and 2× MIC (H2O2 1 mM), 1-h treatment
Procedure: ROS production assay was performed as previously described with minor modifications. […] Once entering the cells, the DCFH-DA probe is first hydrolyzed to the non-fluorescent 2′,7′-dichlorodihydrofluorescein (DCFH) by cellular esterases. […] A colony of C. albicans ATCC 10231 (strain A) was used to inoculate 5 mL of PDB in a Falcon tube and grown overnight at 35° C. at 200 rpm.
Thus, whether the compounds of the invention would also induce ROS against C. albicans was studied. […] 2′,7′-dichlorodihydrofluorescin diacetate (DCFH-DA) was then used to detect and visualize ROS production (FIG. 5). As a positive control, cells were treated with H2O2, which is an inducer of hydroxyl radical formation.

Candida strains (A-J) = test: Antifungal MIC, summary over panel of Candida strains; format: cell-based; conditions: Candida strains A-J
Procedure: as §1, §2, §3

| MIC values, range over the panel of fungal strains [11] [µg/mL] | Compound | MIC-0 [1] [µg/mL] | MIC-0 [2] [µg/mL] | MIC-0 [3] [µg/mL] | MIC-0 [4] [µg/mL] | MIC-0 [5] [µg/mL] | MIC-0 [6] [µg/mL] | MIC-0 [7] [µg/mL] | MIC-0 [8] [µg/mL] | MIC-0 [9] [µg/mL] | MIC-0 [10] [µg/mL] | time from which completely fungicidal ([12]; 2× MIC) [h] | MIC-0 [13] [µg/mL] | MIC-0 [14] [µg/mL] | MIC-0 [15] [µg/mL] | fungicidal or fungistatic effect ([12]; 1× MIC) | fungicidal or fungistatic effect ([12]; 2× MIC) | ROS induction (DCFH-DA fluorescence) [16] | MIC values against Candida strains, range (Candida strains (A-J)) [µg/mL] |
| --- | --- | --- | --- | --- | --- | --- | --- | --- | --- | --- | --- | --- | --- | --- | --- | --- | --- | --- | --- |
| 0.98 to 15.6 | C[C@@H]1[C@H](O)[C@@H](C)/C=C/C=C/C=C/C=C/C=C/C=C/C=C/[C@H](O[C@@H]2O[C@H](C)[C@@H](O)[C@H](N)[C@@H]2O)C[C@@H]2O[C@](O)(C[C@@H](O)C[C@@H](O)[C@H](O)CC[C@@H](O)C[C@@H](O)CC(=O)O[C@H]1C)C[C@H](O)[C@H]2C(=O)O [AmB, amphotericin B, reference compound] | 3.9 (≈ 4.22 µM) | 0.98 (≈ 1.06 µM) | 3.9 (≈ 4.22 µM) | 3.9 (≈ 4.22 µM) | 3.9 (≈ 4.22 µM) | 1.95 (≈ 2.11 µM) | 3.9 (≈ 4.22 µM) | 1.95 (≈ 2.11 µM) | 15.6 (≈ 16.9 µM) | 3.9 (≈ 4.22 µM) | 6 | – | – | – | – | – | – | – |
| – | O=c1c2ccccc2sn1-c1ccccc1 [Compound 2a, ebsulfur] | – | 3.13 (≈ 13.8 µM) | >12.5 | >12.5 | 12.5 (≈ 55 µM) | 6.25 (≈ 27.5 µM) | 3.13 (≈ 13.8 µM) | 12.5 (≈ 55 µM) | 6.25 (≈ 27.5 µM) | 6.25 (≈ 27.5 µM) | – | 6.25 (≈ 27.5 µM) | 12.5 (≈ 55 µM) | 6.25 (≈ 27.5 µM) | fungistatic | fungicidal | highly fluorescent | – |
| – | O=c1c2ccccc2sn1C1CCCC1 [Compound 3k] | 1.56 (≈ 7.11 µM) | 0.39 (≈ 1.78 µM) | 0.78 (≈ 3.56 µM) | 0.39 (≈ 1.78 µM) | 0.39 (≈ 1.78 µM) | 0.78 (≈ 3.56 µM) | 0.39 (≈ 1.78 µM) | 1.56 (≈ 7.11 µM) | 0.20 (≈ 0.912 µM) | 0.10 (≈ 0.456 µM) | – | 0.39 (≈ 1.78 µM) | 0.78 (≈ 3.56 µM) | 0.10 (≈ 0.456 µM) | – | – | – | 0.39 to 1.56 |
| – | O=c1c2ccccc2sn1C1CCCCC1 [Compound 3l] | 1.56 (≈ 6.69 µM) | 0.78 (≈ 3.34 µM) | 1.56 (≈ 6.69 µM) | 0.78 (≈ 3.34 µM) | 0.78 (≈ 3.34 µM) | 1.56 (≈ 6.69 µM) | 0.78 (≈ 3.34 µM) | 1.56 (≈ 6.69 µM) | 0.20 (≈ 0.857 µM) | 0.20 (≈ 0.857 µM) | – | 1.56 (≈ 6.69 µM) | 3.13 (≈ 13.4 µM) | 0.20 (≈ 0.857 µM) | – | – | – | 0.78 to 3.13 |
